One series deals with Caco-2 cell monolayers. Kind of series: Bioabsorption in the Caco cell model (Hilgers et al.). The class given is in vitro ADME. To be noted: estimated from Caco cell model. An excerpt: The bioabsorption of the compounds of the formula I can be examined using the Caco cell model (A. R. Hilgers et al., Caco-2 cell monolayers as a model for drug transport across the intestinal mucosa, Pharm. Res. 1990, 7, 902).
Below is a bioabsorption measurement for a reference compound

Series [1] deals with cholesterol absorption (uptake of ^14C-cholesterol by the liver). Kind of series: Cholesterol absorption test: uptake of 14C-cholesterol by the liver after peroral test meal. The note with it: dose at which uptake of 14C-cholesterol by the liver is halved vs control group, mouse. The format is in vivo, NMRI mice. An excerpt: Effect on Cholesterol Absorption+^3H-taurocholic Acid Excretion Using Fecal Excrement of Mice, Rats or Hamsters
NMRI mice, Wistar rats, or Golden Syrian hamsters (in groups of n=4-6) are kept in metabolic cages, where they are fed with a standard diet (Altromin, Lage (Lippe)). The afternoon prior to the administration of the radioactive tracers (^14C-cholesterol), the feed is removed and the animals are adapted to grates.
Additionally, the animals are labeled s.c. with ^3H-TCA (taurocholic acid) (for example 1 μCi/mouse up to 5 μCi/rat) 24 hours prior to the peroral administration of the test meal (^14C-cholesterol in Intralipid® 20, Pharmacia-Upjohn).
Cholesterol absorption test: 0.25 ml/mouse Intralipid® 20 (Pharmacia-Upjohn) ((spiked with 0.25 μCi of ^14C-cholesterol in 0.1 mg of cholesterol) is administered perorally by gavage.
Test substances are prepared separately in 0.5% methylcellulose (Sigma)/5% Solutol (BASF, Ludwigshafen) or a suitable vehicle.
The administration volume of the test substance is 0.5 ml/mouse. The test substance is administered immediately prior to the test meal (Intralipid labeled with ^14C-cholesterol) (cholesterol absorption test).
The feces are collected over a period of 24 h: fecal elimination of ^14C-cholesterol and ^3H-taurocholic acid (TCA) is determined after 24 hours.
The livers are removed and homogenized, and aliquots are incinerated in an oximate (Model 307, Packard) to determine the amount of ^14C-cholesterol which had been taken up/absorbed.
The amount of ^14C-cholesterol taken up by the liver is based on the administered dose. The ED50 values are interpolated from a dose-effect curve as the dose at which the uptake of ^14C-cholesterol by the liver is halved (50%), based on a control group.

The source of these data is patent US6703386B2, “Diphenylazetidinone derivatives, process for their preparation, medicaments comprising these compounds and their use” (Aventis Pharma Deutschland GmbH, priority 2000, dated 2004).

As for `O=C1[C@H](CC[C@H](O)c2ccc(F)cc2)[C@@H](c2ccc(O)cc2)N1c1ccc(F)cc1` [Ezetimibe], the Estimated human bioabsorption in the series on Caco-2 cell monolayers is reported as 100%.

In the case of `O=C(COCCOCC(=O)Nc1ccccc1C(Nc1ccccn1)C(c1ccccn1)C(O)c1ccccc1)NCc1ccc(C2C(CCC(O)c3ccc(F)cc3)C(=O)N2c2ccc(F)cc2)cc1.O=C(O)C(F)(F)F` (stereo not shown) [XIX, {1-[2-(2-{2-[(4-{1-(4-Fluorophenyl)-3-[3-(4-fluorophenyl)-3-hydroxypropyl]-4-oxoazetidin-2-yl}benzylcarbamoyl)methoxy]ethoxy}acetylamino)phenyl]-3-hydroxy-3-phenyl-2-pyridin-2-ylpropyl}pyridin-2-ylammonium trifluoroacetate], the “ED50 (liver)” value in series [1] worked out at 0.1 mg/mouse.

For `O=C(CCCCCCCCCCC(=O)Nc1ccccc1C(Nc1ccccn1)C(c1ccccn1)C(O)c1ccccc1)NCc1cccc(C2C(CCC(O)c3ccc(F)cc3)C(=O)N2c2ccc(F)cc2)c1.O=C(O)C(F)(F)F` (stereo not shown) [XVI, (1-{2-[11-(3-{1-(4-Fluorophenyl)-3-[3-(4-fluorophenyl)-3-hydroxypropyl]-4-oxoazetidin-2-yl}benzylcarbamoyl)undecanoylamino]phenyl}-3-hydroxy-3-phenyl-2-pyridin-2-ylpropyl)pyridin-2-yl ammonium trifluoroacetate], in series [1], the “ED50 (liver)” value came to 0.03 mg/mouse.

Consider `O=C(COCCOCCOCC(=O)Nc1ccccc1C(Nc1ccccn1)C(c1ccccn1)C(O)c1ccccc1)NCc1cccc(C2C(CCC(O)c3ccc(F)cc3)C(=O)N2c2ccc(F)cc2)c1.O=C(O)C(F)(F)F` (stereo not shown) [XVIII, (1-{2-[2-(2-{2-[(3-{1-(4-Fluorophenyl)-3-[3-(4-fluorophenyl)-3-hydroxypropyl]-4-oxoazetidin-2-yl}benzylcarbamoyl)methoxy]ethoxy}ethoxy)acetylamino]phenyl}-3-hydroxy-3-phenyl-2-pyridin-2-ylpropyl)pyridin-2-ylammonium trifluoroacetate], for which the “ED50 (liver)” value in series [1] is reported as 0.3 mg/mouse.
